Laboratory results: patent US20050112573A1, “Method of detecting toxic substance” (priority 2001, published 2005)

Tested on: yeast genes (level of expressed mRNA)
Assay: DNA chip analysis of expressed mRNA of yeast genes after 2 h culture with a toxic chemical substance
Type: cell-based, Saccharomyces cerevisiae S288C
Protocol: Yeast (Saccharomyces cerevtisiae S288C (α SUC2mal mel gap2 CUP1)) were cultured at 25° C. on YPD medium (yeast extract 1%, polypepton 2%, glucose 2%). One of toxic chemical substances was added to the cell at logarithmic growth phase, and the cell was further cultured for two hours. Cell was cultured without any chemical substance in the same condition, and was used as control. Concentrations of the chemical substances were defined to inhibit the growth of the yeast but not lead to death.
After the completion of cultivation, the culture was centrifuged to collect the cells. To the cells, sodium acetate buffer (50 mM sodium acetate, 10 mM EDTA, 1% SDS) was added, and the mixture was shaken at 65° C. for five minutes, followed by returning to room temperature, and obtaining the supernatant, which procedure was repeated two times. To the supernatant, ½ amount of a solution of phenol/chloroform was added, and the mixture was centrifuged to give a supernatant, which was added with an equal amount of chloroform, and the mixture was centrifuged to give a supernatant. To the supernatant, an equal amount of isopropanol containing 0.3 M sodium acetate was added, and the mixture was allowed to stand at room temperature for 30 minutes, after which the mixture was centrifuged to give a sediment of the whole RNAs. Seventy % ethanol was added to the sediment, and the mixture was again centrifuged to give a sediment, which was then dried and dissolved in water. mRNA was isolated from the whole RNAs as followings. In view of the fact that a poly A chain is attached to the 3′ terminus of mRNA, a polynucleotide having a poly T structure which was immobilized on the surface of latex beads was used to trap the mRNA, and then the mRNA was washed and eluted with spine column (Oligotex-dT30<Super>mRNA Purification Kit, Takara). Reverse transcription of the mRNA was conducted with a reverse transcriptase (Super Script II Reverse Transcriptase; catalogue No. 18064-014, GibcoBRL) using fluorescence-labeled nucleotides to give cDNAs that were introduced with Cy3-dUTP or Cy5-dUTP during the reverse transcription.
The labeled cDNAs were dissolved in TE buffer (10 mM Tris-HCl/1 mM EDTA, pH8.0), and the solution was dropped on the DNA chip containing the whole genes of yeast (DNA Chip Research Inc. Japan) so that the cDNAs were hybridized on the DNA chip at 65° C. for over 12 hours. The fluoresces intensity of the DNA chip was read with a scanner, and the ratio relative to the fluorescence intensity resulting from the absence of chemical substance was estimated as the following, which is shown in Tables 1 to 9: [formula]
In the Tables, “Intensity” indicated in the rightmost column is a value of the level of expressed mRNA of each gene in control cells as divided by the average level of the expressions of the whole genes.

For “manganese ethylenebis(dithiocarbamate) [(8)]”, the “The level of expressed mRNA in the presence of chemical substance/” value (yeast gene YNL074C, ratio to control without chemical substance, 2 h culture) was 0.6, the “The level of expressed mRNA in the presence of chemical substance/” value (yeast gene YNL092W, ratio to control without chemical substance, 2 h culture) was 0.9 and the “The level of expressed mRNA in the presence of chemical substance/The level of expressed mRNA in the absence of chemical substance” value (yeast gene YNL093W) was 0.8. For the same substance, the “The level of expressed mRNA in the presence of chemical substance/” value (yeast gene YNL115C, ratio to control without chemical substance, 2 h culture) was 0.8, the “The level of expressed mRNA in the presence of chemical substance/” value (yeast gene YNL156C, ratio to control without chemical substance, 2 h culture) was 1.2 and the “The level of expressed mRNA in the presence of chemical substance/” value (yeast gene YNL234W, ratio to control without chemical substance, 2 h culture) was 1.3. The “The level of expressed mRNA in the presence of chemical substance/” value (yeast gene YNL281W, ratio to control without chemical) was 1.2, the “The level of expressed mRNA in the presence of chemical substance/” value (yeast gene YNL305C, ratio to control without chemical) was 0.7 and the “The level of expressed mRNA in the presence of chemical substance/The level of expressed mRNA in the absence of chemical substance” value (yeast gene YNL333W) was 2.1. For the same substance, the “The level of expressed mRNA in the presence of chemical substance/The level of expressed mRNA in the absence of chemical substance” value (yeast gene YNR010W) was 1.1, the “The level of expressed mRNA in the presence of chemical substance/” value (yeast gene YNR068C, ratio to control without chemical) was 1.1 and the “The level of expressed mRNA in the presence of chemical substance/The level of expressed mRNA in the absence of chemical substance” value (yeast gene YNR069C) was 1.4. The “The level of expressed mRNA in the presence of chemical substance/in the absence of chemical substance” value (yeast gene YNR072W) was 0.9, the “The level of expressed mRNA in the presence of chemical substance/The level of expressed mRNA in the absence of chemical substance” value (yeast gene YOL013C) was 1.0 and the “The level of expressed mRNA in the presence of chemical substance/” value (yeast gene YOL032W, ratio to control without chemical) was 1.5. The “The level of expressed mRNA in the presence of chemical substance/” value (yeast gene YOL036W, ratio to control without chemical) was 0.8, the “The level of expressed mRNA in the presence of chemical substance/” value (yeast gene YOL047C, ratio to control without chemical) was 1.1 and the “The level of expressed mRNA in the presence of chemical substance/” value (yeast gene YOL071W, ratio to control without chemical) was 1.6. The “The level of expressed mRNA in the presence of chemical substance/” value (yeast gene YOL082W, ratio to control without chemical) was 1.1, the “The level of expressed mRNA in the presence of chemical substance/” value (yeast gene YOL083W, ratio to control without chemical) was 1.3 and the “The level of expressed mRNA in the presence of chemical substance/in the absence of chemical substance” value (yeast gene YOL096C) was 1.0. The “The level of expressed mRNA in the presence of chemical substance/” value (yeast gene YOL117W, ratio to control without chemical) was 1.1, the “The level of expressed mRNA in the presence of chemical substance/” value (yeast gene YOL131W, ratio to control without chemical) was 1.1 and the “The level of expressed mRNA in the presence of chemical substance/” value (yeast gene YOL150C, ratio to control without chemical substance, 2 h culture) was 3.7. The “The level of expressed mRNA in the presence of chemical substance/” value (yeast gene YOL162W, ratio to control without chemical) was 1.6, the “The level of expressed mRNA in the presence of chemical substance/The level of expressed mRNA in the absence of chemical substance” value (yeast gene YOL164W) was 1.0 and the “The level of expressed mRNA in the presence of chemical substance/” value (yeast gene YOR019W, ratio to control without chemical) was 1.1. For the same substance, the “The level of expressed mRNA in the presence of chemical substance/The level of expressed mRNA in the absence of chemical substance” value (yeast gene YOR036W) was 1.4, the “The level of expressed mRNA in the presence of chemical substance/The level of expressed mRNA in the absence of chemical substance” value (yeast gene YOR117W) was 1.0 and the “The level of expressed mRNA in the presence of chemical substance/The level of expressed mRNA in the absence of chemical substance” value (yeast gene YOR124C) was 1.3. The “The level of expressed mRNA in the presence of chemical substance/The level of expressed mRNA in the absence of chemical substance” value (yeast gene YOR132W) was 1.2, the “The level of expressed mRNA in the presence of chemical substance/The level of expressed mRNA in the absence of chemical substance” value (yeast gene YOR157C) was 1.2 and the “The level of expressed mRNA in the presence of chemical substance/in the absence of chemical substance” value (yeast gene YOR180C) was 0.9. The “The level of expressed mRNA in the presence of chemical substance/The level of expressed mRNA in the absence of chemical substance” value (yeast gene YOR181W) was 0.7, the “The level of expressed mRNA in the presence of chemical substance/The level of expressed mRNA in the absence of chemical substance” value (yeast gene YOR185C) was 1.4 and the “The level of expressed mRNA in the presence of chemical substance/” value (yeast gene YOR197W, ratio to control without chemical) was 0.9. For the same substance, the “The level of expressed mRNA in the presence of chemical substance/The level of expressed mRNA in the absence of chemical substance” value (yeast gene YOR198C) was 1.3, the “The level of expressed mRNA in the presence of chemical substance/The level of expressed mRNA in the absence of chemical substance” value (yeast gene YOR259C) was 1.1 and the “The level of expressed mRNA in the presence of chemical substance/The level of expressed mRNA in the absence of chemical substance” value (yeast gene YOR261C) was 2.6. For the same substance, the “The level of expressed mRNA in the presence of chemical substance/The level of expressed mRNA in the absence of chemical substance” value (yeast gene YOR288C) was 1.9, the “The level of expressed mRNA in the presence of chemical substance/The level of expressed mRNA in the absence of chemical substance” value (yeast gene YOR355W) was 0.8 and the “The level of expressed mRNA in the presence of chemical substance/in the absence of chemical substance” value (yeast gene YOR363C) was 1.1. The “The level of expressed mRNA in the presence of chemical substance/The level of expressed mRNA in the absence of chemical substance” value (yeast gene YOR383C) was 1.0, the “The level of expressed mRNA in the presence of chemical substance/” value (yeast gene YPL087W, ratio to control without chemical) was 1.0 and the “The level of expressed mRNA in the presence of chemical substance/The level of expressed mRNA in the absence of chemical substance” value (yeast gene YPL089C) was 0.8. For the same substance, the “The level of expressed mRNA in the presence of chemical substance/The level of expressed mRNA in the absence of chemical substance” value (yeast gene YPL109C) was 1.1, the “The level of expressed mRNA in the presence of chemical substance/The level of expressed mRNA in the absence of chemical substance” value (yeast gene YPL149W) was 1.1 and the “The level of expressed mRNA in the presence of chemical substance/The level of expressed mRNA in the absence of chemical substance” value (yeast gene YPL154C) was 0.8. For the same substance, the “The level of expressed mRNA in the presence of chemical substance/” value (yeast gene YPL196W, ratio to control without chemical) was 1.2, the “The level of expressed mRNA in the presence of chemical substance/” value (yeast gene YPL206C, ratio to control without chemical) was 1.0 and the “The level of expressed mRNA in the presence of chemical substance/” value (yeast gene YPL222W, ratio to control without chemical) was 0.7. For the same substance, the “The level of expressed mRNA in the presence of chemical substance/” value (yeast gene YPR023C, ratio to control without chemical) was 0.9, the “The level of expressed mRNA in the presence of chemical substance/The level of expressed mRNA in the absence of chemical substance” value (yeast gene YPR103W) was 1.0 and the “The level of expressed mRNA in the presence of chemical substance/The level of expressed mRNA in the absence of chemical substance” value (yeast gene YPR108W) was 1.6. For the same substance, the “The level of expressed mRNA in the presence of chemical substance/” value (yeast gene YPR151C, ratio to control without chemical) was 1.4 and the “The level of expressed mRNA in the presence of chemical substance/in the absence of chemical substance” value (yeast gene YPR184W) was 0.7.
